Measurements published in patent publication US20220119446A1, “BIOMARKERS AND TREATMENT OF NEURONAL INJURY AND NEURODEGENERATION” (Board of Supervisons of Louisiana State University and …, priority 2018, published 2022).
“Also recorded” adds a separate entry of the source.

Experiments:
Wnt5a [1] = test: Microarray of Wnt5a expression in 15-LOX-1 deficient ARPE-19 cells under uncompensated oxidative stress (UOS); type: cell-based, human; settings: UOS=600 μM H2O2 plus 10 ng/ml TNFα, 6 hours, UOS alone gives 2-fold increase
Method: Primary human RPE cultures can be from human eyecups, provided by the National Disease Research Interchange (NDRI), as described previously (Calandria et al. 2012). hRPE cells can be grown and maintained in high-glucose MEM (Life Technologies Corporation, Carlsbad, Calif.) supplemented with 10% FBS (Tissue Culture Biologicals, Inc., Long Beach, Calif.), 5% NCS, non-essential amino acids, Penicillin-Streptomycin (100 U/mL), human fibroblast growth factor (FGF) 10 ng/mL and incubated at 37° C. with a constant supply of 5% CO2. ARPE-19 cells, can be plated and grown in DMEM/F-12 containing 10% FBS and 1× penicillin/streptomycin at 37° C., 5% CO2, 99% relative humidity for 24 h. Silenced 15-LOX-1 cells, described in detail elsewhere (Calandria et al. 2009), are derived from ARPE-19 by stably silencing 15-LOX-1. 15-LOX-1 deficient cells can be maintained in the same medium as ARPE-19 with the addition of 500 μg/mL Geneticin (Life Technologies Corporation, Carlsbad, Calif.). […] Transfection efficiency can be assessed using an expression plasmid-carrying GFP ORF or by including a negative control siRNA conjugated with Alexa Fluor® 488 or 546 (QIAGEN, Hilden, Germany). siRNA efficiency can be assessed using SYBR green-based real-time PCR using the primers of Table 2 and the percentage of silencing achieved (FIG. 7). […]

Wnt5a [2] = test: SYBR green real-time PCR of Wnt5a mRNA in human primary RPE (hpRPE) cells under UOS; type: cell-based
Method: ARPE-19 cells, can be plated and grown in DMEM/F-12 containing 10% FBS and 1× penicillin/streptomycin at 37° C., 5% CO2, 99% relative humidity for 24 h. […] 15-LOX-1 deficient cells can be maintained in the same medium as ARPE-19 with the addition of 500 μg/mL Geneticin (Life Technologies Corporation, Carlsbad, Calif.). Transfection can be performed in all cases using Lipofectamine 2000 (Life Technologies Corporation, Carlsbad, Calif.) following the manufacturer's recommendations. […] Experiments with transfection efficiency that yielded less than 80% can be discarded. For siRNA, we used 6 μl of Lipofectamine 2000 per 50 pmol of siRNA per mL of incubation medium, and, for plasmids, we used 6 μl of Lipofectamine 2000 per 2 μg of plasmid per mL of incubation medium. Cells can be incubated for 5 hours at 37° C., 5% CO2 and 99% relative humidity. […] When siRNA/plasmid co-transfection is required, siRNA and plasmid-carrying transfection mixes can be prepared separately and added one after the other in the same well. Oxidative stress treatments can be performed using 600 (ARPE-19) or 1600 (hRPE) μM H2O2, along with 10 ng/mL TNFα, for the required time indicated in each experiment. The treatment we used employed the low serum (0.5% serum) without hFGF. Treatment to induce uncompensated oxidative stress (UOS) can be performed after 8 hours of low-serum medium incubation unless specifically noted. […]

CC/C=C\C[C@H](O)\C=C/C=C/C=C/[C@H](O)C/C=C\C/C=C\CCC(=O)O [NPD1, 10R,17S-dihydroxy-docosa-4Z,7Z,11E,13E,15Z,19Z-hexaenoic acid]
Wnt5a expression (Wnt5a [1]): brought down to below controls; also recorded: reversed | Wnt5a transcription (mRNA) (Wnt5a [2]; hpRPE cells, UOS 1,600 μM H2O2 and 10 ng/ml TNFα, 6 hours): down regulated Wnt5a transcription; also recorded: decreased Wnt5a expression | increase of Wnt5a expression on cRel silencing (Wnt5a [2]; hpRPE, UOS plus NPD1, 12-fold in control, 8-fold in UOS): 4 fold
